Entries after “also recorded” stand apart in the source; their conditions may differ. Blank lines part the entries; values can stand above or below the molecule they belong to.
Experiments:
[1] = biological target: T1, human estrogen receptor α (ERα) (Homo sapiens, UniProt P03372); assay: Competitive binding assay using [6,7-3H]17β-estradiol and human recombinant ERα (nitrocellulose filter binding); conditions: for RBA (relative binding affinity): binding affinity of E2 taken as 100, estimated from sigmoidal dose-response curves
T1 sequence (P03372 1-595): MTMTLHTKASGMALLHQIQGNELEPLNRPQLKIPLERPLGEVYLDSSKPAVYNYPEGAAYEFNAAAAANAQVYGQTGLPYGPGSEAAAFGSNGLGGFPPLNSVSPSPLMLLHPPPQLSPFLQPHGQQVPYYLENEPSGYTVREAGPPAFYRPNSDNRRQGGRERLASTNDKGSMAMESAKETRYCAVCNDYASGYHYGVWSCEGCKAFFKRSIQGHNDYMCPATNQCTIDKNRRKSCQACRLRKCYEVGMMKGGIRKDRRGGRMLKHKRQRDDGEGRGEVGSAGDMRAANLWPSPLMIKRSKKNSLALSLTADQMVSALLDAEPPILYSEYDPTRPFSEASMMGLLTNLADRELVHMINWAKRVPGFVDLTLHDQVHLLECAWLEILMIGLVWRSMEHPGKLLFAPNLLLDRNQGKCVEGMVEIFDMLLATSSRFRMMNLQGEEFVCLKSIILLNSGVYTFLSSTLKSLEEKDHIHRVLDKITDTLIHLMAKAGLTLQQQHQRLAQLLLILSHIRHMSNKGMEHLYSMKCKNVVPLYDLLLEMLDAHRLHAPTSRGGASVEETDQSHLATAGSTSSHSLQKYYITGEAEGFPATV
Description: The ligand binding activity of human estrogen receptor α (ER α) was determined by a nitrocellulose filter binding assay method. […] Radioactivity that remained in the membrane was measured in Atomlight by using a liquid scintillation counter.
All binding assays were performed in duplicate (n = 2).

[2] = system: MCF-7 cells; assay: MCF-7 cell proliferation assay (WST-8), in the presence or absence of 0.1 nM E2; assay type: cell-based, human; conditions: for IC50 / Emax: MCF7; for IC50: proliferation induced by 0.1 nM of E2, read-out: IC50 (inhibition of MCF-7 cell proliferation); for EC50: estrogenic activity, absence of E2, four days; for Emax: read-out: Emax (maximal efficacy toward cell proliferation)
Description: Table 1 summarizes the EC50, IC50, and Emax values estimated from the MCF-7 cell proliferation assays. Emax represents the maximal efficacy of each compound toward cell proliferation and is an index of ER partial agonistic activity. Emax was estimated relative to that of E2, which was taken as 100.
The human breast adenocarcinoma cell line MCF-7 was routinely cultivated in DMEM supplemented with 10% FBS and 100 IU/mL penicillin and […] streptomycin at 37 °C in a 5% CO2 humidified incubator. Before an assay, MCF-7 cells were switched to DMEM (low glucose phenol red-free supplemented with 5% FBS, and 100 IU/mL penicillin and […] streptomycin). Cells were trypsinized from the maintenance dish with phenol red-free trypsin-EDTA and seeded in a 96-well plate at a density of 2000 cells per final volume of 100 μL DMEM supplemented with 5% stripped FBS and 100 IU/mL penicillin and […] streptomycin. After 24 h, the medium was removed and 90 μL of fresh medium and 10 μL of drug solution, supplemented with serial dilutions of test compounds or DMSO as dilute control in the presence or absence of 0.1 nM E2, were added to triplicate microcultures. Cells were incubated for four days. At the end of the incubation time, number of cells was counted by using the WST-8, which was added to microcultures 10 μL each, and they were incubated for 2–4 h. The absorbance at 450 nm was measured. This parameter relates to and number of living cells in the culture.

[3] = system: ER; design: method as in PMID 15943468; conditions: cited from earlier work
[4] = system: ERα; design: method as in doi:10.1351/pac200375091197; conditions: cited from earlier work
[5] = system: OVX and ORX mice; design: method as in doi:10.1351/pac200375091197; conditions: cited from earlier work
[6] = Homo sapiens, relative to E2, taken as 100

Molecule: [O-][S+]1CC(c2ccc(O)cc2)=C(c2ccc(O)cc2)C1 [4b, 3,4-Bis-(4-hydroxyphenyl)-2,5-dihydrothiophene-1-oxide]
- Binding to ERα (in words) [1]: did not bind to the ERα ligand-binding domain (LBD), even at concentrations 1000 times higher than that of E2
- RBA (relative binding affinity) [1]: 0.003%
- melting point: 219 to 220 °C

Molecule: Oc1ccc(C2=C(c3ccc(O)cc3)C3CCC2CC3)cc1 [compound 2]
- Estrogenic activity (in words) [3]: potent estrogenic activity

Molecule: CC1(C)CC(c2ccc(O)cc2)=C(c2ccc(O)cc2)CC1(C)C [compound 3]
- Estrogenic activity (in words) [3]: acted as a partial agonist

Molecule: 1,2-bis(4-hydroxyphenyl)-o-carborane [BE360]
- Binding affinity toward ERα (in words) [4]: high binding affinity toward ERα
- Estrogenic action in bone and uterus (in words) [5]: estrogenic action in bone without showing estrogenic action in the uterus

Molecule: Oc1ccc(C2=C(c3ccc(O)cc3)CSC2)cc1 [4a, 3,4-Bis-(4-hydroxyphenyl)-2,5-dihydrothiophene]
- Binding affinity, times lower than that of E2 [1]: about 100 times
- Binding to ERα (in words) [1]: moderately bound to ERα
- Estrogenic / antiestrogenic activity toward MCF-7 (in words) [2]: showed estrogenic activity
- EC50 ([2]; Homo sapiens, MCF7, 96 h): 390 nM
- Emax [2, 6]: 119%

Second part, led by results:

- RBA (relative binding affinity) [1]: 4.0%
- IC50 ([2]; Homo sapiens): 410 nM
- melting point: 177 to 178.5 °C
Molecule: CN(C)CCCOc1ccc(C2=C(c3ccc(O)cc3)CSC2)cc1 [4d, 4-{4-[4-(3-dimethylaminopropoxy)phenyl]-2,5-dihydrothiophen-3-yl}phenol]
- Estrogenic / antiestrogenic activity toward MCF-7 (in words) [2]: acted as ER antagonists

- EC50 ([2]; Homo sapiens, MCF7, 96 h): 4700 nM
Molecule: O=S1(=O)CCC(c2ccc(O)cc2)=C(c2ccc(O)cc2)CC1 [5c, 4,5-Bis (4-hydroxyphenyl)-2,3,6,7-tetrahydrothiepine-1,1-dioxide]
- Estrogenic / antiestrogenic activity toward MCF-7 (in words) [2]: weak estrogenic activity; also recorded: showed estrogenic activity
- Emax [2, 6]: 89%

- IC50 ([2]; Homo sapiens): 90 nM
Molecule: CN(C)CCCOc1ccc(C2=C(c3ccc(O)cc3)CCSCC2)cc1 [5d, 4-{5-[4-(3-Dimethylaminopropoxy)phenyl]-2,3,6,7-tetrahydrothiepin-4-yl}phenol]
- Estrogenic / antiestrogenic activity toward MCF-7 (in words) [2]: acted as ER antagonists

- RBA (relative binding affinity) [1]: 4.9%
- EC50 [2]: 48 nM
Molecule: 3,4-Bis (4-hydroxyphenyl)-2,3,6,7-tetrahydrothiepine [5a]
- Estrogenic / antiestrogenic activity toward MCF-7 (in words) [2]: acted as an agonist toward MCF-7 cell proliferation; also recorded: showed estrogenic activity
- Emax (maximal efficacy toward cell proliferation) ([2]; relative to E2, taken as 100): 99%

- RBA (relative binding affinity) [1]: 0.04%
- EC50 ([2]; Homo sapiens, MCF7, 96 h): 300 nM
- melting point: 180.5 to 181 °C
Molecule: O=S1(=O)CC(c2ccc(O)cc2)=C(c2ccc(O)cc2)C1 [4c, 3,4-Bis-(4-hydroxyphenyl)-2,5-dihydrothiophene-1,1-dioxide]
- Binding to ERα (in words) [1]: did not bind to the ERα ligand-binding domain (LBD), even at concentrations 1000 times higher than that of E2
- Estrogenic / antiestrogenic activity toward MCF-7 (in words) [2]: showed estrogenic activity
- Emax [2, 6]: 130%

From article PMC6864722, “Design and Synthesis of Novel Breast Cancer Therapeutic Drug Candidates Based upon the Hydrophobic Feedback Approach of Antiestrogens” (Molecules, 2019)
